According to the supplement of paper PMC11061612:

Tests used:
Test in all cases: combination Emax (second highest fraction inhibited in the dose matrix, 72 h); higher = more inhibition; extreme values may be limits of the assay
[1] = test system: 22RV1 (Prostate Carcinoma)
Procedure, shortened: (§1)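 Cell lines grown in DMEM/F12 or RPMI with 10% FBS were plated in 1536-well plates and held 24 hours at 37°C, 5% CO2 before 72 hours of exposure to two-drug dose matrices, with DMSO typically at 0.2%. CellTiter-Glo 2.0 luminescence gave viability, which was converted to inhibition. Vehicle wells were set to 0 and blank wells to 1. Combination Emax is the second-highest inhibition in the matrix, and Bliss excess is the observed combination effect minus the expected EA + EB − EA·EB, where EA and EB are the single-agent effects.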

[2] = test system: A2780 (Ovarian Carcinoma)
Procedure, shortened: as §1

AU565 (Breast Carcinoma) = test system: AU565 (Breast Carcinoma)
Procedure, shortened: as §1

[3] = test system: CA46 (Burkitt's Lymphoma)
Procedure, shortened: as §1

[4] = test system: CAL-27 (Oral Cavity Carcinoma)
Procedure, shortened: as §1

EW-7 (Ewing's Sarcoma) = test system: EW-7 (Ewing's Sarcoma)
Procedure, shortened: as §1

[5] = test system: GCT (Other Solid Carcinomas)
Procedure, shortened: as §1

[6] = test system: JHH-2 (Hepatocellular Carcinoma)
Procedure, shortened: as §1

[7] = test system: JIMT-1 (Breast Carcinoma)
Procedure, shortened: as §1

[8] = test system: KYSE-140 (Esophageal Squamous Cell Carcinoma)
Procedure, shortened: as §1

[9] = test system: LS-411N (Colorectal Carcinoma)
Procedure, shortened: as §1

[10] = test system: LU-165 (Small Cell Lung Carcinoma)
Procedure, shortened: as §1

[11] = test system: MDA-MB-436 (Breast Carcinoma)
Procedure, shortened: as §1

[12] = test system: NCI-H1651 (Lung Adenocarcinoma)
Procedure, shortened: as §1

[13] = test system: NCI-H1703 (Squamous Cell Lung Carcinoma)
Procedure, shortened: as §1

[14] = test system: NCI-H716 (Colorectal Carcinoma)
Procedure, shortened: as §1

[15] = test system: OACp4C (Esophageal Adenocarcinoma)
Procedure, shortened: as §1

PEO1 (Ovarian Carcinoma) = test system: PEO1 (Ovarian Carcinoma)
Procedure, shortened: as §1

[16] = test system: UACC-812 (Breast Carcinoma)
Procedure, shortened: as §1

[17] = test system: huH-1 (Hepatocellular Carcinoma)
Procedure, shortened: as §1

Row | Compound | combination Emax [1] | combination Emax [2] | combination Emax (AU565 (Breast Carcinoma)) | combination Emax [3] | combination Emax [4] | combination Emax (EW-7 (Ewing's Sarcoma)) | combination Emax [5] | combination Emax [6] | combination Emax [7] | combination Emax [8] | combination Emax [9] | combination Emax [10] | combination Emax [11] | combination Emax [12] | combination Emax [13] | combination Emax [14] | combination Emax [15] | combination Emax (PEO1 (Ovarian Carcinoma)) | combination Emax [16] | combination Emax [17]
1 | C=CCn1c(=O)c2cnc(Nc3ccc(N4CCN(C)CC4)cc3)nc2n1-c1cccc(C(C)(C)O)n1 [AZD1775] + C[C@@H]1COCCN1C2=NC(=NC(=C2)C3(CC3)[S@](=N)(=O)C)C4=C5C=CNC5=NC=C4 [AZD6738] (first compound max 1 µM, partner max 10 µM) | 0.636 | 0.938 | 0.603 | 0.739 | 0.682 | 0.944 | 0.552 | 0.737 | 0.76 | 0.967 | 0.77 | 0.48 | 0.478 | 0.823 | 0.958 | 0.623 | 0.831 | 0.6 | 0.531 | 0.794
2 | C=CCn1c(=O)c2cnc(Nc3ccc(N4CCN(C)CC4)cc3)nc2n1-c1cccc(C(C)(C)O)n1 [AZD1775] + O=C(c1cc(Cc2n[nH]c(=O)c3ccccc23)ccc1F)N1CCN(C(=O)C2CC2)CC1 [Olaparib] (first compound max 1 µM, partner max 10 µM) | 0.323 | 0.76 | 0.449 | 0.53 | 0.525 | 0.82 | 0.501 | 0.574 | 0.558 | 0.733 | 0.417 | 0.342 | 0.271 | 0.736 | 0.962 | 0.378 | 0.806 | 0.384 | 0.14 | 0.634
3 | CCN(CCO)CCCOc1ccc2c(Nc3cc(CC(=O)Nc4cccc(F)c4)[nH]n3)ncnc2c1 [AZD2811] + C=CCn1c(=O)c2cnc(Nc3ccc(N4CCN(C)CC4)cc3)nc2n1-c1cccc(C(C)(C)O)n1 [AZD1775] (first compound max 1 µM, partner max 1 µM) | 0.234 | 0.82 | 0.449 | 0.489 | 0.511 | 0.817 | 0.292 | 0.574 | 0.488 | 0.826 | 0.641 | 0.333 | 0.235 | 0.634 | 0.94 | 0.562 | 0.809 | 0.278 | 0.116 | 0.696
4 | CCN(CCO)CCCOc1ccc2c(Nc3cc(CC(=O)Nc4cccc(F)c4)[nH]n3)ncnc2c1 [AZD2811] + C[C@@H]1COCCN1C2=NC(=NC(=C2)C3(CC3)[S@](=N)(=O)C)C4=C5C=CNC5=NC=C4 [AZD6738] (first compound max 1 µM, 7x7, partner max 10 µM) | 0.566 | 0.815 | 0.362 | 0.482 | 0.515 | 0.902 | 0.242 | 0.62 | 0.677 | 0.92 | 0.819 | 0.38 | 0.311 | 0.56 | 0.834 | 0.515 | 0.733 | 0.553 | 0.323 | 0.712
5 | CCN(CCO)CCCOc1ccc2c(Nc3cc(CC(=O)Nc4cccc(F)c4)[nH]n3)ncnc2c1 [AZD2811] + O=C(c1cc(Cc2n[nH]c(=O)c3ccccc23)ccc1F)N1CCN(C(=O)C2CC2)CC1 [Olaparib] (first compound max 1 µM, 7x7, partner max 10 µM) | 0.337 | 0.717 | 0.214 | 0.248 | 0.778 | 0.361 | 0.328 | 0.202 | 0.0806 | 0.355 | 0.149 | 0.29 | 0.144 | 0.248 | 0.519 | 0.367 | 0.408 | 0.29 | 0.181 | 0.415
6 | CN(CCO)CC[C@H](CSc1ccccc1)Nc1ccc(S(=O)(=O)NC(=O)c2ccc(N3CCC([C@@H](O)c4ccccc4-c4ccc(Cl)cc4)CC3)cc2)cc1S(=O)(=O)C(F)(F)F [AZD4320] + CN(C)CCCOc1ccc(-c2ccc3ncc4c(c3c2)n(C2CCOCC2)c(=O)n4C)cn1 [AZD0156] (first compound max 1 µM, 7x7, partner max 1 µM) | 0.385 | 0.383 | 0.253 | 0.349 | 0.158 | 0.68 | 0.239 | 0.194 | 0.171 | 0.157 | 0.199 | 0.526 | 0.133 | 0.0674 | 0.367 | 0.195 | 0.851 | 0.45 | 0.175 | 0.122
7 | COc1nnc2ccc(N3CCC(c4ccc(OCCN5CCN(C)C(=O)[C@H]5C)cc4)CC3)nn12 [AZD5153] + C=CCn1c(=O)c2cnc(Nc3ccc(N4CCN(C)CC4)cc3)nc2n1-c1cccc(C(C)(C)O)n1 [AZD1775] (first compound max 1 µM, partner max 1 µM) | 0.529 | 0.844 | 0.742 | 0.744 | 0.63 | 0.872 | 0.617 | 0.553 | 0.622 | 0.832 | 0.889 | 0.602 | 0.227 | 0.822 | 0.992 | 0.524 | 0.882 | 0.691 | 0.376 | 0.558
8 | COc1nnc2ccc(N3CCC(c4ccc(OCCN5CCN(C)C(=O)[C@H]5C)cc4)CC3)nn12 [AZD5153] + CC1(C)CCC(CN2CCN(c3ccc(C(=O)NS(=O)(=O)c4ccc(NCC5CCOCC5)c([N+](=O)[O-])c4)c(Oc4cnc5[nH]ccc5c4)c3)CC2)=C(c2ccc(Cl)cc2)C1 [Venetoclax] (first compound max 1 µM, 7x7, partner max 1 µM) | 0.486 | 0.736 | 0.311 | 0.658 | 0.504 | 0.334 | 0.595 | 0.357 | 0.311 | 0.603 | 0.728 | 0.468 | 0.227 | 0.257 | 0.655 | 0.615 | 0.545 | 0.368 | 0.261 | 0.401
9 | COc1nnc2ccc(N3CCC(c4ccc(OCCN5CCN(C)C(=O)[C@H]5C)cc4)CC3)nn12 [AZD5153] + CCN(CCO)CCCOc1ccc2c(Nc3cc(CC(=O)Nc4cccc(F)c4)[nH]n3)ncnc2c1 [AZD2811] (first compound max 1 µM, 7x7, partner max 1 µM) | 0.522 | 0.783 | 0.359 | 0.652 | 0.646 | 0.444 | 0.568 | 0.416 | 0.382 | 0.626 | 0.739 | 0.458 | 0.287 | 0.499 | 0.721 | 0.529 | 0.683 | 0.435 | 0.298 | 0.527
10 | COc1nnc2ccc(N3CCC(c4ccc(OCCN5CCN(C)C(=O)[C@H]5C)cc4)CC3)nn12 [AZD5153] + C[C@@H]1COCCN1C2=NC(=NC(=C2)C3(CC3)[S@](=N)(=O)C)C4=C5C=CNC5=NC=C4 [AZD6738] (first compound max 1 µM, 7x7, partner max 10 µM) | 0.645 | 0.848 | 0.502 | 0.754 | 0.659 | 0.961 | 0.6 | 0.711 | 0.77 | 0.821 | 0.947 | 0.685 | 0.332 | 0.767 | 0.973 | 0.702 | 0.856 | 0.748 | 0.479 | 0.69
11 | COc1nnc2ccc(N3CCC(c4ccc(OCCN5CCN(C)C(=O)[C@H]5C)cc4)CC3)nn12 [AZD5153] + Cc1c2c(nn1C)CSCc1cc(n(C)n1)CSc1cc(c3ccccc3c1)OCCCc1c(C(=O)O)n(C)c3c-2c(Cl)ccc13 [AZD5991] (first compound max 1 µM, 7x7, partner max 1 µM) | 0.857 | 0.977 | 1 | 0.64 | 1 | 0.759 | 0.6 | 0.343 | 0.611 | 0.603 | 0.917 | 0.65 | 0.293 | 0.515 | 0.966 | 0.817 | 0.789 | 0.432 | 0.8 | 0.435
12 | COc1nnc2ccc(N3CCC(c4ccc(OCCN5CCN(C)C(=O)[C@H]5C)cc4)CC3)nn12 [AZD5153] + Cn1cnc2c(F)c(Nc3ccc(Br)cc3Cl)c(C(=O)NOCCO)cc21 [Selumetinib] (first compound max 1 µM, 7x7, partner max 10 µM) | 0.555 | 0.823 | 0.328 | 0.633 | 0.795 | 0.357 | 0.59 | 0.427 | 0.426 | 0.557 | 0.997 | 0.357 | 0.217 | 0.138 | 0.626 | 0.879 | 0.945 | 0.483 | 0.331 | 0.438
13 | Cc1c2c(nn1C)CSCc1cc(n(C)n1)CSc1cc(c3ccccc3c1)OCCCc1c(C(=O)O)n(C)c3c-2c(Cl)ccc13 [AZD5991] + C1CN(CCC1(C(=O)N[C@@H](CCO)C2=CC=C(C=C2)Cl)N)C3=NC=NC4=C3C=CN4 [Capivasertib] (first compound max 1 µM, 7x7, partner max 3 µM) | 0.706 | 0.838 | 1 | 0.351 | 0.996 | 0.725 | 0.438 | 0.604 | 0.21 | 0.862 | 0.362 | 0.261 | 0.201 | 0.254 | 0.847 | 0.401 | 0.783 | 0.207 | 0.427 | 0.227
